Measured values: patent US20230172207A1 (BASF SE, priority 2020, published 2023)
Where two headings read alike, the source gives them in different places.

Key:
[1] = system: Phakopsora pachyrhizi (F129L); test: Protective control of soybean rust on soybeans (PHAKPA P6); type: in vivo; conditions: for % PHAKPA (F129L) Disease level, P6 at 4 ppm: protective P6, 4 ppm
[2] = system: Alternaria solani (F129L); test: Micro titer plate test against Alternaria solani causing early blight (ALTESO F129L); type: cell-based; conditions: relative growth vs compound-free control (100%), 7 days
Leptosphaeria nodorum = test: Micro titer plate test against Leptosphaeria nodorum causing wheat leaf spots (LEPTNO); type: cell-based; conditions: for activity at 0.063 ppm: Parastagonospora nodorum, 168 h, read-out: Fungal growth (%) LEPTNO
[3] = system: Phakopsora pachyrhizi (F129L); test: Protective control of soybean rust on soybeans (PHAKPA P2); type: in vivo; conditions: soybean rust F129L
Microdochium nivale = type: cell-based
[4] = system: Pyrenophora teres (F129L); test: Micro titer plate test against Pyrenophora teres causing net blotch on barley (PYRNTE F129L); type: cell-based; conditions: 0.25 ppm, relative growth vs compound-free control (100%), 7 days
[5] = system: Colletotrichum orbiculare; test: Micro titer plate test against Colletotrichum orbiculare causing anthracnose (COLLLA); type: cell-based
Pyrenophora teres (wt) = test: Micro titer plate test against Pyrenophora teres causing net blotch on barley (PYRNTE wt); type: cell-based
Pyricularia oryzae = test: microbe, parasite or virus in culture; type: cell-based
Alternaria solani (wt) = test: microbe, parasite or virus in culture; type: cell-based
Cercospora sojina = test: microbe, parasite or virus in culture; type: cell-based; conditions: 168 h, read-out: Fungal growth (%) CERCSO
[6] = 0.063 ppm, relative growth vs compound-free control (100%), 7 days

CNC(=O)/C(=N/OC)c1cccc(C)c1CO/N=C(\C)c1cccc(C(F)(F)F)c1 [compound 8]
PHAKPA (F129L) Disease level (%) P6 at 4 ppm ([1]; 4 ppm, protective, inoculation six days after spraying, % diseased leaf area): 13% | % PHAKPA (F129L) Disease level, P6 at 4 ppm [1]: 1% | Fungal growth (%) ALTESO F129L ([2]; 0.016 ppm, listed as Ex. 8): 52% | Fungal growth (%) LEPTNO (Leptosphaeria nodorum; [6]): 70%

CNC(=O)/C(=N/OC)c1cccc(C)c1CO/N=C(\C)c1cc(F)cc(F)c1 [compound 84]
% PHAKPA (F129L) Disease level, P2 at 4 ppm ([3]; protective P2, 4 ppm): 0% | % PHAKPA (F129L) Disease level, P2 at 16 ppm ([3]; protective P2, 16 ppm): 0% | % PHAKPA (F129L) Disease level, P6 at 4 ppm ([1]; soybean rust F129L): 0% | % PHAKPA (F129L) Disease level, P6 at 16 ppm ([1]; protective P6, 16 ppm, soybean rust F129L): 0% | Fungal growth (%) MONGNI (Microdochium nivale): 32% | Fungal growth (%) PYRNTE F129L [4]: 49% | Fungal growth (%) COLLLA [5]: 33% | Fungal growth (%) PYRNTE wt (Pyrenophora teres (wt)): 39% | Fungal growth (%) ALTEO F129L ([2]; 4 ppm): 39% | Fungal growth (%) LEPTNO (Leptosphaeria nodorum): 60% | Fungal growth (%) PYRIOR (Pyricularia oryzae; 0.016 ppm, relative growth vs compound-free control (100%), 7 days): 48% | Fungal growth (%) ALTESO wt (Alternaria solani (wt)): 43%

CO/N=C(/C(=O)OC)c1cccc(C)c1CO/N=C(\C)c1cccc(C)c1 [drawing 956, reference compound]
activity at 4 ppm (Cercospora sojina): 67% | activity at 0.25 ppm (Pyrenophora teres (wt); Pyrenophora teres, 168 h, 0.25 ppm, relative growth vs compound-free control (100%), 7 days, read-out: Fungal growth (%) PYRNTE wt): 53% | activity at 0.016 ppm ([2]; Alternaria solani, 168 h, 0.016 ppm, read-out: Fungal growth (%) ALTESO F129L): 81% | activity at 0.063 ppm (Leptosphaeria nodorum; [6]): 65% | activity at 0.016 ppm (Alternaria solani (wt); Alternaria solani, 168 h, read-out: Fungal growth (%) ALTESO wt): 93%

CO/N=C(/C(=O)OC)c1cccc(C)c1CO/N=C(\OC)c1cccc(OC(F)(F)F)c1 [reference compound]
activity at 4 ppm (Cercospora sojina): 56% | activity at 0.063 ppm (Leptosphaeria nodorum; [6]): 100% | activity at 0.016 ppm (Pyricularia oryzae; Pyricularia oryzae, 168 h, read-out: Fungal growth (%) PYRIOR): 58%
